Results from PMC3917258, “6-Bromoisatin Found in Muricid Mollusc Extracts Inhibits Colon Cancer Cell Proliferation and Induces Apoptosis, Preventing Early Stage Tumor Formation in a Colorectal Cancer Rodent Model” (Marine Drugs, 2013).
“And” between values parts separate entries of the source, which are not always exact repeats. Equal values may be shown once.

Key:
HT29 cells = assay: MTT cell viability assay; assay type: cell-based, human; settings: for reduction of cell viability: relative to DMSO control, 12 h
Experimental: All media and chemicals were purchased from Sigma Aldrich (Castle Hill, NSW, Australia) unless otherwise stated. HT29 human colorectal cancer cell line (passage no. 36-42) were cultured (37 °C and 5% CO2) in Dulbecco’s Modified Eagle’s Medium (DMEM) supplemented with 4500 mg/L L-glutamine, 10% FBS, 100 U/mL Penicillin/Streptomycin and 1% Non-essential Amino Acid (100×), until the cells reached 70% confluence. The cells were harvested from flasks by trypsinization (1× Trypsin-EDTA) and were seeded (20,000 cells/well) into clear 96-well plates (Costar®, Mt Martha, VIC, Australia) for measurement of cell viability and white (opaque) 96-well plates (Interpath, Heidelberg West, VIC, Australia) for determination of apoptosis and necrosis. HT29 cells were incubated for 48 h, then the media was removed and the cells were washed with PBS. […] 1% DMSO controls were also included on each plate. Staurosporine (5 µM) for apoptosis and lysis solution (5 μL/well, Promega, Alexandria, NSW, Australia) for necrosis were added to the white plates in triplicate, as positive controls. All cells were treated for 12 h. Morphological changes in the cells were observed on an Olympus CK2 inverted optical microscope (×400 magnification) 12 h after treatment. To measure cell viability, the MTT assay was applied, which measures the reduction of MTT tetrazolium salt to formazan, as previously described. To measure necrosis and apoptosis, CytoTox-ONE Homogeneous Membrane Integrity Assay reagent (Promega) and Caspase-Glo 3/7® assay (Promega) were applied respectively, according to our previous study. These assays were all repeated in triplicate on three separate occasions (n = 3).

[1] = tested on: distal colonic epithelial cells; assay: AARGC mouse model: Ki-67 proliferation index; assay type: in vivo, mice (C57BL/6J); settings: distal colon, compared to oil control
Experimental: (§1) This experiment was conducted under Flinders animal welfare approval number 751-10. A total of 38 wild-type (C57BL/6J) male mice aged 10 weeks were obtained from the Animal Resource Centre, Perth, Western Australia. Mice were divided randomly into 4 groups (ten mice in each treatment group and 8 mice in the sunflower oil only control group) and housed in 8 cages (four to five mice per cage). The mice were given water and food (rodent chow) ad libitum and maintained at the temperature of 22 ± 2 °C and humidity of 80% ± 10% with a 12 h light/dark cycle. Mice were weighed every five days and on the day of kill, and monitored daily for signs of illness, such as weight and hair loss, diarrhea, constipation, rectal bleeding, labored breathing, lethargy, eye and nose discharge.
(§2) To detect the early stage prevention of colon cancer, an established AARGC rodent model with injection of the carcinogen AOM was used. Synthetic 6-bromoisatin at 3 different dosages (0.025, 0.05 and 0.1 mg/g body weight) was administered to mice by daily oral gavage in 100 µL sunflower oil, containing 0.02% Vitamin E, for two weeks. The control group was gavaged with sunflower oil (containing 0.02% Vitamin E) only. After two weeks, all mice were injected with a single intraperitoneal (i.p.) injection of AOM at a dosage of 10 mg/kg bodyweight and euthanized 6 h later by cervical dislocation under anesthesia. […] The distal colon of each mouse was excised and fixed in 10% buffered formalin for 24 h and then embedded in paraffin for histological and immunohistological examination.
Ki-67 is a cell cycle associated antigen and regarded as a useful proliferation marker. Proliferative activity of distal colonic epithelial cells was measured using an antibody specific for the nuclear proliferating antigen ki-67 (rat-anti-mouse clone TEC-3, Dako, Campbellfield, VIC, Australia) in combination with an immunohistochemistry detection method in paraffin embedded sections, as previously described. […]

[2] = Body and liver weight of treated mice; assay type: in vivo, mice (C57BL/6J); settings: mean ± S.E.; for Liver weight / Liver/Body (%): day of kill; for Total weight Gain / Body weight (Day1) / Body weight (Day5) / Body weight (Day10) / Body weight (Day14): mice
Experimental: as §1, §2

Plasma biochemistry = assay type: in vivo, mice (C57BL/6J)
Experimental: as §2
Blood samples (0.5–1 mL) were obtained from the mice under anesthesia by cardiac puncture at time of kill and transferred to Gribbles Veterinary Pathology laboratory, Adelaide within heparinized vacutainer tubes then centrifuged to separate into the cell layer for hematology analysis (Abbott Cell Dyn 3700 analyzer, North Ryde, NSW, Australia) and plasma for biochemistry analysis (Siemens Advia 1800 chemistry analyzer, Erlangen, Germany). The plasma levels of the liver enzymes AST, ALT and ALP were assessed as indicators of hepatotoxicity.

[3] = General observations for signs of illness; assay type: in vivo, mice (C57BL/6J); settings: mice, 0.025-0.1 mg/g daily oral gavage two weeks
Experimental: as §1

[4] = parameters: method as in PMID 20150770; settings: low pH, simulated digestive fluid; cited from earlier work
[5] = 0.025 mg/g daily oral gavage 14 days
[6] = 0.05 mg/g daily oral gavage 14 days
[7] = 0.1 mg/g daily oral gavage 14 days
[8] = 0.025 mg/g, n = 6, 6 h after AOM 10 mg/kg
[9] = 0.05 mg/g, n = 6, 6 h after AOM 10 mg/kg
[10] = 0.1 mg/g, n = 8, 6 h after AOM 10 mg/kg

O=C1Nc2cc(Br)ccc2C1=O [6-bromoisatin, 6-Bromoindole-2,3-dione]
reduction of cell viability (HT29 cells; 0.01 mg/mL): no significant reduction
reduction of cell viability (HT29 cells; 0.025 mg/mL): 26%
reduction of cell viability (HT29 cells; 0.05 mg/mL): 53%
reduction of cell viability (HT29 cells; 1 mg/mL): 64%
IC50 (HT29 cells; Homo sapiens, HT-29, HT29 cells, MTT, 12 h treatment, 1% DMSO): 223 µM and 50 µg/mL
cell proliferation ([1]; 0.025 mg/g daily oral gavage two weeks): did not show a significant anti-proliferative effect
cell proliferation ([1]; 0.05 mg/g daily oral gavage two weeks): significantly reduced
reduction in cell proliferation ([1]; 0.1 mg/g daily oral gavage two weeks): more than 50%
Liver weight [2, 5]: 1.0 ± 0.1 g
Liver/Body (%) [2, 5]: 4.4 ± 0.6%
Total weight Gain [2, 5]: 1.4 ± 0.8 g
Body weight (Day1) ([2]; 0.025 mg/g daily oral gavage): 22.2 ± 1.3 g
Body weight (Day5) ([2]; 0.025 mg/g daily oral gavage): 22.7 ± 1.3 g
Body weight (Day10) ([2]; 0.025 mg/g daily oral gavage): 23.0 ± 1.3 g
Body weight (Day14) ([2]; 0.025 mg/g daily oral gavage): 23.6 ± 1.4 g
Liver weight [2, 6]: 1.2 ± 0.1 g
Liver/Body (%) [2, 6]: 5.2 ± 0.6%
Total weight Gain [2, 6]: 1.4 ± 1.0 g
Body weight (Day1) ([2]; 0.05 mg/g daily oral gavage): 22.6 ± 1.2 g
Body weight (Day5) ([2]; 0.05 mg/g daily oral gavage): 23.4 ± 1.2 g
Body weight (Day10) ([2]; 0.05 mg/g daily oral gavage): 23.4 ± 1.5 g
Body weight (Day14) ([2]; 0.05 mg/g daily oral gavage): 24.1 ± 1.6 g
Liver weight [2, 7]: 1.3 ± 0.1 g
Liver/Body (%) [2, 7]: 5.3 ± 0.4%
Total weight Gain [2, 7]: 1.4 ± 0.8 g
Body weight (Day1) ([2]; 0.1 mg/g daily oral gavage): 22.3 ± 1.3 g
Body weight (Day5) ([2]; 0.1 mg/g daily oral gavage): 22.6 ± 1.3 g
Body weight (Day10) ([2]; 0.1 mg/g daily oral gavage): 23.3 ± 1.3 g
Body weight (Day14) ([2]; 0.1 mg/g daily oral gavage): 23.8 ± 1.6 g
Albumin (Plasma biochemistry; [8]): 28.7 ± 1.5 g/L
Calcium (Plasma biochemistry; [8]): 2.2 ± 0.1 mmol/L
Creat. (Creatinine) (Plasma biochemistry; [8]): 13.3 ± 0.8 µmol/L
Globulin (Plasma biochemistry; [8]): 18.0 ± 1.4 g/L
NA/K (Sodium/Potassium ratio) (Plasma biochemistry; [8]): 29.1 ± 1.2
Potassium (Plasma biochemistry; [8]): 5.1 ± 0.2 mmol/L
Protein (Plasma biochemistry; [8]): 46.7 ± 2.8 g/L
Sodium (Plasma biochemistry; [8]): 147.7 ± 0.5 mmol/L
Urea (Plasma biochemistry; [8]): 9.7 ± 1.6 mmol/L
Albumin (Plasma biochemistry; [9]): 27.8 ± 1.5 g/L
Calcium (Plasma biochemistry; [9]): 2.2 ± 0.04 mmol/L
Creat. (Creatinine) (Plasma biochemistry; [9]): 14.7 ± 0.5 µmol/L
Globulin (Plasma biochemistry; [9]): 18.3 ± 0.8 g/L
NA/K (Sodium/Potassium ratio) (Plasma biochemistry; [9]): 33.5 ± 2.7
Potassium (Plasma biochemistry; [9]): 4.5 ± 0.4 mmol/L
Protein (Plasma biochemistry; [9]): 46.2 ± 1.9 g/L
Sodium (Plasma biochemistry; [9]): 149.7 ± 1.4 mmol/L
Urea (Plasma biochemistry; [9]): 9.9 ± 1.4 mmol/L
Albumin (Plasma biochemistry; [10]): 28.2 ± 1.5 g/L
Calcium (Plasma biochemistry; [10]): 2.2 ± 0.1 mmol/L
Creat. (Creatinine) (Plasma biochemistry; [10]): 14.6 ± 1.2 µmol/L
Globulin (Plasma biochemistry; [10]): 17.9 ± 1.2 g/L
NA/K (Sodium/Potassium ratio) (Plasma biochemistry; [10]): 34.1 ± 3.6
Potassium (Plasma biochemistry; [10]): 4.3 ± 0.4 mmol/L
Protein (Plasma biochemistry; [10]): 46.1 ± 2.2 g/L
Sodium (Plasma biochemistry; [10]): 149.7 ± 1.2 mmol/L
Urea (Plasma biochemistry; [10]): 9.6 ± 1.2 mmol/L
diarrhea / stool consistency [3]: no diarrhea or change in stool consistency
signs of illness [3]: did not show any signs of illness
stability [4]: stable at low pH
